Laboratory results as given in patent US12275733B2, “Substituted pyrido[3,4-b]indoles for the treatment of cartilage disorders” (Sanofi, priority 2016, dated 2025).

Tests used:
[1] = system: ATDC5 cells; assay: Chondrogenesis activity assay in ATDC5 cells (collagen type II induction, immunofluorescence); assay type: cell-based, mouse; conditions: Mus musculus; for EC50: collagen type II induction in ATDC5 cells, concentration reaching 50% of maximum induction; for Emax: maximum percent induction of collagen type II relative to internal reference compound at 10 μM, ATDC5 cells
Summary of the method: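 Mouse ATDC5 cells in insulin (10 μg/ml)-containing DMEM/F12 differentiation medium with 5% FCS were exposed to compound, typically 40 nM–10 μM at 0.1% DMSO, for 4 days at 37 °C. Intracellular collagen type II was quantified by Alexa Fluor 488 immunostaining with high-content imaging, relative to DMSO and a 10 μM reference compound.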

[2] = system: primary human chondrocyte pellet cultures; assay: Chondrogenesis activity assay in primary human chondrocyte pellet cultures (proteoglycan (aggrecan) induction, Blyscan assay); assay type: cell-based; conditions: for EC50: 336 h, proteoglycan (aggrecan) induction, primary human chondrocyte pellets, 2 weeks culture; for Emax: Homo sapiens, Chondrocyte, maximum percent proteoglycan (aggrecan) induction relative to the internal reference compound at 10 μM
Experimental: B) Chondrogenesis Activity Assay in Primary Human Chondrocyte Pellet Cultures
In this assay human articular chondrocytes are harvested by enzymatic digestion from articular cartilage and passaged several times to dedifferentiate the chondrocytes and to propagate the cells. Cells are cultured as cell pellets in the presence of the compounds of the invention over 2 weeks, and the chondrogenic differentiation is quantified by the production of the chondrogenic marker aggrecan (proteoglycan).
In detail, primary chondrocytes were harvested by enzymatic digestion from cartilage of osteoarthritis patients undergoing knee joint replacement surgery, and cultured in vitro. Cells were passaged one or two times and aliquots were cryopreserved. To initiate chondrogenesis experiments, cell aliquots were thawn, cultured in Chondrocyte Growth Medium (CGM, Lonza, #CC-3216) and passaged twice to further propagate and dedifferentiate cells. Pellet cultures were initiated by seeding 2.5×10E5 cells per well into a 96-well deep well plate in 600 μl chondrocyte differentiation medium consisting of Dulbecco's Modified Eagle Medium (DMEM, Invitrogen, #41966), 1×ITS-solution (Insulin/Transferrin/sodium selenite; 100× solution: Invitrogen, #51500056), 5 μg/mL linoleic acid (Sigma, #L1012-1G), 1× nonessential amino acids (100× solution: Invitrogen, #11140); 10 nM Dexamethasone, 2 ng/ml TGF-β1 (transforming growth factor β1) and 10 μg/ml ascorbic acid. Cells were spun to pellets by centrifugation (10 min, 400×g). Test compounds dissolved in DMSO were added to yield increasing compound concentrations, typically from 40 nM to 10 μM, and a final DMSO concentration of 0.1%, and the cell pellets cultured at 37° C., and 5% CO2 for 2 weeks. On each 96-well plate, control wells containing no test compound but the same concentration of DMSO, i.e. untreated cells, were included and used as reference for the determination of the effect of the test compounds on the cells, and wells containing an internal reference compound at a concentration of 10 μM were included and used as positive control and for standardizing the results. Chondrocyte differentiation medium and the compounds were exchanged twice weekly until harvest of the pellets.
For harvest of the pellets, medium was removed and the pellet was homogenized by enzymatic digestion. 100 μl of protease solution containing 0.4 mg/ml papain, 50 mM sodium phosphate, 4 mM EDTA and 0.48 mg/ml L-cysteine was added to the pellet in each well of a 96-well plate, the plate was sealed with a plate sealer foil (SILVERseal, Greiner Bio-One) and incubated for 4 to 6 hours at 65° C. with agitation.
The concentration of proteoglycan (aggrecan) was determined by quantification of the sulfated glycosaminoglycan side chains of aggrecan using the Blyscan assay (Kit from Biocolor). Aliquots of the papain-digest were transferred to 400 μl of Blyscan dye solution and incubated at room temperature for 45 min with agitation (1200 rpm). The mixture was centrifuged at 3760×g for 45 min, the supernatant was discarded, and the stained pellet was redissolved in 400 μl of Blyscan dissociation reagent by rotation until the precipitate completely resolved. Optical density was measured at 656 nm using a Tecan Saphire2 instrument, and the amount of proteoglycan determined against a standard curve with chondroitin-4-sulfate.
Induction of proteoglycan (aggrecan) was calculated for each compound concentration relative to the control (untreated cells, i.e. no test compound added), and an EC50 value (effective concentration 50 (in μM (micromollliter)), i.e. the compound concentration at which the effect of the compound on proteoglycan (aggrecan) induction reaches 50% of the maximum induction) was calculated using a sigmoidal signal fit procedure. […]

Structure (SMILES) | EC50 [1] [nM] | Emax [1] [%] | EC50 [2] [nM] | Emax [2] [%]
Cc1nccc2c1[nH]c1c(-c3cccc(Oc4ncc(Br)cn4)c3)cc(Cl)cc12 [Example 37, 8-[3-(5-Bromo-pyrimidin-2-yloxy)-phenyl]-6-chloro-1-methyl-9H-pyrido[3,4-b]indole] | > 3300 | 20 to 50 | 4300 | 100 to 200
Cc1nccc2c1[nH]c1c(-c3ccc(OCc4nccn4C)cc3)cc(Cl)cc12 [Example 39, 6-Chloro-1-methyl-8-[4-(1-methyl-1H-imidazol-2-ylmethoxy)-phenyl]-9H-pyrido[3,4-b]indole] | 170 | > 80 | 3700 | > 200
Cc1nccc2c1[nH]c1c(-c3ccc(OCCn4cccn4)cc3)cc(Cl)c(C)c12 [Example 45] | 130 | > 80 | 220 | 40 to 100
Clc1cc(-c2ccc(Cl)nc2Cl)c2c(c1)c1ccncc1n2CC1CC1 [Example 46, 6-Chloro-9-cyclopropylmethyl-8-(2,6-dichloro-pyridin-3-yl)-pyrido[3,4-b]indole] | 1400 | > 80 | 1000 | 100 to 200
CCn1c2cnccc2c2cc(Cl)cc(-c3ccc(Cl)nc3Cl)c21 [Example 55, 6-Chloro-8-(2,6-dichloro-pyridin-3-yl)-9-ethyl-9H-pyrido[3,4-b]indole] | 650 | > 80 | 950 | 100 to 200
Cc1nccc2c1[nH]c1c(-c3cnccc3Cl)cc(Cl)cc12 [Example 97, 6-Chloro-8-(4-chloro-pyridin-3-yl)-1-methyl-9H-pyrido[3,4-b]indole] | > 1100 | < 20 | 5100 | > 200
CCn1c2c(-c3cnn(Cc4cccnc4)c3)cc(Cl)cc2c2ccnc(C)c21 [Example 116, 6-Chloro-9-ethyl-1-methyl-8-(1-pyridin-3-ylmethyl-1H-pyrazol-4-yl)-9H-pyrido[3,4-b]indole] | 390 | > 80 | 1300 | 100 to 200
COC(=O)c1cc2c([nH]c3c(-c4ccc(Cl)nc4Cl)cc(Cl)cc32)c(C)n1 [Example 117, 6-Chloro-8-(2,6-dichloro-pyridin-3-yl)-1-methyl-9H-pyrido[3,4-b]indole-3-carboxylic acid methyl ester] | > 10000 | < 20 | 27000 | < 40
Cc1nccc2c1[nH]c1c(-c3ccc(N4CCN(C)CC4)nc3)cc(Cl)cc12 [Example 118, 6-Chloro-1-methyl-8-[6-(4-methyl-piperazin-1-yl)-pyridin-3-yl]-9H-pyrido[3,4-b]indole] | > 1100 | 20 to 50 | 1300 | 100 to 200
Cc1nccc2c1[nH]c1c(-c3cccnc3OCc3ccccc3)cc(Cl)cc12 [Example 119, 8-(2-Benzyloxy-pyridin-3-yl)-6-chloro-1-methyl-9H-pyrido[3,4-b]indole] | > 3300 | < 20 | 21000 | 40 to 100
COc1nc(Cl)ccc1-c1cc(Cl)cc2c1[nH]c1c(C)nccc12 [Example 122, 6-Chloro-8-(6-chloro-2-methoxy-pyridin-3-yl)-1-methyl-9H-pyrido[3,4-b]indole] | > 3300 | 20 to 50 | 3600 | 100 to 200
COc1ccc(-c2cc(Cl)cc3c2[nH]c2c(C)nccc23)cc1 [Example 149, 6-Chloro-8-(4-methoxy-phenyl)-1-methyl-9H-pyrido[3,4-b]indole] | 330 | > 80 | 1100 | 100 to 200
FC(F)(F)Cn1c2cnccc2c2cc(Cl)cc(-c3cnn(-c4c(Cl)cccc4Cl)c3)c21 [Example 167, 6-Chloro-8-[1-(2,6-dichloro-phenyl)-1H-pyrazol-4-yl]-9-(2,2,2-trifluoro-ethyl)-9H-pyrido[3,4-b]indole] | > 10000 | 20 to 50 | 13000 | < 40
Cc1ncc(-c2cc(Cl)cc3c4ccncc4n(CC(F)(F)F)c23)s1 [Example 171, 6-Chloro-8-(2-methyl-thiazol-5-yl)-9-(2,2,2-trifluoro-ethyl)-9H-pyrido[3,4-b]indole] | 1900 | > 80 | 4000 | > 200
Cc1nccc2c1[nH]c1c(-c3ccc4c(c3)CCCO4)cc(Cl)cc12 [Example 184, 6-Chloro-8-chroman-6-yl-1-methyl-9H-pyrido[3,4-b]indole] | 3000 | 50 to 80 | 1900 | 40 to 100
Cc1nccc2c1[nH]c1c(-c3ccc(OCCn4ccnc4)cc3)cc(Cl)cc12 [Example 194, 6-Chloro-8-[4-(2-imidazol-1-yl-ethoxy)-phenyl]-1-methyl-9H-pyrido[3,4-b]indole] | 140 | > 80 | 830 | 100 to 200
Cc1nccc2c1[nH]c1c(-c3ccc4c(c3)OC(C)(C)C4)cc(Cl)cc12 [Example 195, 6-Chloro-8-(2,2-dimethyl-2,3-dihydro-benzofuran-6-yl)-1-methyl-9H-pyrido[3,4-b]indole] | > 10000 | < 20 | 14000 | < 40
Cc1nccc2c1[nH]c1c(-c3c[nH]nc3Cc3ccccc3)cc(Cl)cc12 [Example 199, 8-(3-Benzyl-1H-pyrazol-4-yl)-6-chloro-1-methyl-9H-pyrido[3,4-b]indole] | > 10000 | < 20 | 22000 | < 40
COCc1cc(-c2cc(Cl)cc3c2[nH]c2c(C)nccc23)ccc1OC [Example 200, 6-Chloro-8-(4-methoxy-3-methoxymethyl-phenyl)-1-methyl-9H-pyrido[3,4-b]indole] | > 10000 | 20 to 50 | 4400 | 100 to 200
COc1ccc(-c2cc(Cl)cc3c2[nH]c2c(C)nccc23)cc1Cl [Example 206, 6-Chloro-8-(3-chloro-4-methoxy-phenyl)-1-methyl-9H-pyrido[3,4-b]indole] | > 10000 | 20 to 50 | 19000 | < 40
CCn1c2c(-c3cnn(C)c3)cc(Br)cc2c2ccnc(C)c21 [Example 209, 6-Bromo-9-ethyl-1-methyl-8-(1-methyl-1H-pyrazol-4-yl)-9H-pyrido[3,4-b]indole] | 280 | > 80 | 2600 | > 200
CCc1cc2c([nH]c3c(-c4ccc(OCCn5cccn5)cc4)cc(Br)cc32)c(C)n1 [Example 212, 6-Bromo-3-ethyl-1-methyl-8-[4-(2-pyrazol-1-yl-ethoxy)-phenyl]-9H-pyrido[3,4-b]indole] | > 3300 | < 20 | 8900 | < 40
Cc1nccc2c1[nH]c1c(-c3ccnc(N4CCNCC4)c3)cc(Cl)cc12 [Example 213, 6-Chloro-1-methyl-8-(2-piperazin-1-yl-pyridin-4-yl)-9H-pyrido[3,4-b]indole] | > 1100 | < 20 | 1200 | 100 to 200
Cc1nccc2c1[nH]c1c(-c3ccnc(N4CCN(C)CC4)c3)cc(Cl)cc12 [Example 214, 6-Chloro-1-methyl-8-[2-(4-methyl-piperazin-1-yl)-pyridin-4-yl]-9H-pyrido[3,4-b]indole] | > 3300 | < 20 | 1300 | 100 to 200
